Structures can show the parent of a compound that is named as a salt.
Biological target: T1, CDK11A (Homo sapiens, UniProt Q9UQ88)
T1 sequence (Q9UQ88 346-783): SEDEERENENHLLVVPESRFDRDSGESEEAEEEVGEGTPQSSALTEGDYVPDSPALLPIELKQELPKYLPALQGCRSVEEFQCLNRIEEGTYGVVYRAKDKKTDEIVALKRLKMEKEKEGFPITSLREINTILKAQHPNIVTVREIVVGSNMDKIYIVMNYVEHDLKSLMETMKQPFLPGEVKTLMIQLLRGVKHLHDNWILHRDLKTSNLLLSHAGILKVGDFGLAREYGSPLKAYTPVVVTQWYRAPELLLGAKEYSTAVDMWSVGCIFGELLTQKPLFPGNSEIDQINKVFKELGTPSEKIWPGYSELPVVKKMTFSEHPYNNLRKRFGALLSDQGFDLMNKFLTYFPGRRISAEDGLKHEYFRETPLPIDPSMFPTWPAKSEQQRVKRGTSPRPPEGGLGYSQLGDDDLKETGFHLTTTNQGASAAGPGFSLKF
Conditions: displacement of SNS-032-Atto590 probe (0.002 μM) from CDK11A-p58 (0.032 uM), fluorescence polarization
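Also: compound preincubated 30 min with CDK11A-p58, then probe added and polarization (mP) read 15 min later, 0% displacement is probe plus enzyme, 100% is probe alone.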

Row | Structure (SMILES) | DC50
1 | N#Cc1ccc(C#N)c(-c2ccc3[nH]nc(NC(=O)[C@@H]4CCCNC4)c3c2)c1 [cpd 53, (3R)-N-[5-(2,5-Dicyanophenyl)-1H-indazol-3-yl]piperidine-3-carboxamide hydrochloride] | 30 nM
2 | CC(C)(C)COC(=O)n1nc(NC(=O)[C@@H]2CCCNC2)c2cc(-c3cc(C#N)ccc3Cl)ccc21 [cpd 212, 2,2-Dimethylpropyl 5-(2-chloro-5-cyanophenyl)-3-{[(3R)-piperidin-3-ylcarbonyl]amino}-1H-indazole-1-carboxylate hydrochloride] | 821 nM
3 | O=C(CC1CCNCC1)Nc1n[nH]c2ccc(-c3c(Cl)cccc3Cl)cc12 [compound 163, N-[5-(2,6-Dichlorophenyl)-1H-indazol-3-yl]-2-(piperidin-4-yl)acetamide hydrochloride] | 576 nM
4 | CCOc1ccc2[nH]nc(NC(=O)[C@@H]3CCCNC3)c2c1 [cpd 229, (3R)-N-(5-Ethoxy-1H-indazol-3-yl)piperidine-3-carboxamide hydrochloride] | 20 nM
5 | CCCCN1CCC(C(=O)Nc2n[nH]c3ccc(-c4cc(C#N)ccc4Cl)cc23)CC1 [compound 140, 1-Butyl-N-[5-(2-chloro-5-cyanophenyl)-1H-indazol-3-yl]piperidine-4-carboxamide hydrochloride] | 68 nM
6 | N#Cc1ccc(Cl)c(-c2ccc3[nH]nc(NC(=O)C4CC(NC5CCC5)C4)c3c2)c1 (stereo not shown) [compound 153, N-[5-(2-Chloro-5-cyanophenyl)-1H-indazol-3-yl]-3-(cyclobutylamino)cyclobutanecarboxamide hydrochloride] | 41 nM
7 | COc1ccc(Cl)c(-c2ccc3[nH]nc(NC(=O)C4CCCNC4)c3c2)c1 (stereo not shown) [cpd 17, N-[5-(2-Chloro-5-methoxyphenyl)-1H-indazol-3-yl]piperidine-3-carboxamide hydrochloride] | 52 nM
8 | O=C(Nc1n[nH]c2ccc(-c3ccc(O)cc3Cl)cc12)C1CCCNC1 (stereo not shown) [cpd 3, N-[5-(2-Chloro-4-hydroxyphenyl)-1H-indazol-3-yl]piperidine-3-carboxamide hydrochloride] | 51 nM
9 | CC(OC(=O)C(C)C)OC(=O)N1CCC[C@@H](C(=O)Nc2n[nH]c3ccc(-c4cc(C#N)ccc4Cl)cc23)C1 (stereo partly drawn) [compound 190, 1-[(2-Methylpropanoyl)oxy]ethyl (3R)-3-{[5-(2-chloro-5-cyanophenyl)-1H-indazol-3-yl]carbamoyl}piperidine-1-carboxylate] | 706 nM
10 | O=C(Nc1n[nH]c2ccc(-c3ccc(Cl)cc3C(F)(F)F)cc12)[C@@H]1CCCNC1 [cpd 45, (3R)-N-{5-[4-Chloro-2-(trifluoromethyl)phenyl]-1H-indazol-3-yl}piperidine-3-carboxamide hydrochloride] | 88 nM
11 | CC(C)(C)C(=O)OCOC(=O)N1CCC[C@@H](C(=O)Nc2n[nH]c3ccc(-c4cc(C#N)ccc4Cl)cc23)C1 [compound 193, [(2,2-Dimethylpropanoyl)oxy]methyl (3R)-3-{[5-(2-chloro-5-cyanophenyl)-1H-indazol-3-yl]carbamoyl}-piperidine-1-carboxylate] | 340 nM
12 | CNC(=O)c1ccc(C#N)c(-c2ccc3[nH]nc(NC(=O)[C@@H]4CCCNC4)c3c2)c1 [cpd 55, (3R)-N-{5-[2-Cyano-5-(methylcarbamoyl)phenyl]-1H-indazol-3-yl}piperidine-3-carboxamide hydrochloride] | 90 nM
13 | CNC1CCC(C(=O)Nc2n[nH]c3ccc(-c4c(Cl)cccc4Cl)cc23)CC1 (stereo not shown) [compound 144, N-[5-(2,6-Dichlorophenyl)-1H-indazol-3-yl]-4-(methylamino)cyclohexanecarboxamide hydrochloride] | 110 nM
14 | CC(C)(C)COC(=O)n1nc(NC(=O)[C@@H]2CCC(C)(C)NC2)c2cc(-c3cc(C#N)ccc3Cl)ccc21 (single isomer, unassigned) [cpd 224, 2,2-Dimethylpropyl 5-(2-chloro-5-cyanophenyl)-3-({[(3+)-6,6-dimethylpiperidin-3-yl]carbonyl}amino)-1H-indazole-1-carboxylate hydrochloride] | 528 nM
15 | N#Cc1ccc(Cl)c(-c2ccc3[nH]nc(NC(=O)C4CC(NC5CCCC5)C4)c3c2)c1 (stereo not shown) [compound 154, N-[5-(2-Chloro-5-cyanophenyl)-1H-indazol-3-yl]-3-(cyclopentylamino)cyclobutanecarboxamide hydrochloride] | 40 nM
16 | N#Cc1ccc(Cl)c(-c2ccc3[nH]nc(NC(=O)C4CCNCC4)c3c2)c1 [cpd 61, N-[5-(2-Chloro-5-cyanophenyl)-1H-indazol-3-yl]piperidine-4-carboxamide hydrochloride] | 139 nM
17 | O=C(C[C@@H]1CCCN1)Nc1n[nH]c2ccc(-c3c(Cl)cccc3Cl)cc12 [compound 162, N-[5-(2,6-Dichlorophenyl)-1H-indazol-3-yl]-2-[(2S)-pyrrolidin-2-yl]acetamide hydrochloride] | 792 nM
18 | Cc1ccc(-c2ccc3[nH]nc(NC(=O)[C@@H]4CCCNC4)c3c2)c(C(F)(F)F)c1 [cpd 36, (3R)-N-{5-[4-Methyl-2-(trifluoromethyl)phenyl]-1H-indazol-3-yl}piperidine-3-carboxamide hydrochloride] | 65 nM
19 | N#Cc1ccc(Cl)c(-c2ccc3[nH]nc(NC(=O)[C@H]4CCCNC4)c3c2)c1 [compound 181, (3S)-N-[5-(2-Chloro-5-cyanophenyl)-1H-indazol-3-yl]piperidine-3-carboxamide hydrochloride] | 64 nM
20 | CC(=O)c1ccc(Cl)c(-c2ccc3[nH]nc(NC(=O)[C@@H]4CCNC4)c3c2)c1 [cpd 38, (3R)-N-[5-(5-Acetyl-2-chlorophenyl)-1H-indazol-3-yl]pyrrolidine-3-carboxamide hydrochloride] | 16 nM
21 | CC(C)NC1CC(C(=O)Nc2n[nH]c3ccc(-c4cc(C#N)ccc4Cl)cc23)C1 (stereo not shown) [compound 148, N-[5-(2-Chloro-5-cyanophenyl)-1H-indazol-3-yl]-3-(propan-2-ylamino)cyclobutanecarboxamide hydrochloride] | 20 nM
22 | NC(=O)c1ccc(Cl)c(-c2ccc3[nH]nc(NC(=O)C4CCCNC4)c3c2)c1 (stereo not shown) [cpd 9, N-[5-(5-Carbamoyl-2-chlorophenyl)-1H-indazol-3-yl]piperidine-3-carboxamide hydrochloride] | 131 nM

Results, then the molecule that gave them:

Row | DC50 | Structure (SMILES)
23 | 89 nM | CC(C)N1CCC(C(=O)Nc2n[nH]c3ccc(-c4cc(C#N)ccc4Cl)cc23)CC1 [compound 143, N-[5-(2-Chloro-5-cyanophenyl)-1H-indazol-3-yl]-1-(propan-2-yl)piperidine-4-carboxamide hydrochloride]
24 | 502 nM | Cc1ccc(Cl)c(-c2ccc3[nH]nc(NC(=O)C4CCN(C)CC4)c3c2)c1 [cpd 86, N-[5-(2-Chloro-5-methylphenyl)-1H-indazol-3-yl]-1-methylpiperidine-4-carboxamide hydrochloride]
25 | 79 nM | CCCN1CCC(C(=O)Nc2n[nH]c3ccc(-c4cc(C#N)ccc4Cl)cc23)CC1 [compound 141, N-[5-(2-Chloro-5-cyanophenyl)-1H-indazol-3-yl]-1-propylpiperidine-4-carboxamide hydrochloride]
26 | 63 nM | CN1CCC(C(=O)Nc2n[nH]c3ccc(-c4cc(C#N)ccc4Cl)cc23)CC1 [cpd 116, N-[5-(2-Chloro-5-cyanophenyl)-1H-indazol-3-yl]-1-methylpiperidine-4-carboxamide trifluoroacetate]
27 | 468 nM | CN1CCC(C(=O)Nc2n[nH]c3ccc(-c4ccc(F)c(F)c4F)cc23)CC1 [compound 128, 1-Methyl-N-[5-(2,3,4-trifluorophenyl)-1H-indazol-3-yl]piperidine-4-carboxamide hydrochloride]
28 | 619 nM | COc1cc(F)c(-c2ccc3[nH]nc(NC(=O)C4CCN(C)CC4)c3c2)c(F)c1 [cpd 120, N-[5-(2,6-Difluoro-4-methoxyphenyl)-1H-indazol-3-yl]-1-methylpiperidine-4-carboxamide hydrochloride]
29 | 446 nM | CN1CCC(C(=O)Nc2n[nH]c3ccc(-c4cc(CO)ccc4Cl)cc23)CC1 [cpd 77, N-{5-[2-Chloro-5-(hydroxymethyl)phenyl]-1H-indazol-3-yl}-1-methylpiperidine-4-carboxamide p-toluensulfonate]
30 | 592 nM | CN1CCC(C(=O)Nc2n[nH]c3ccc(-c4ccc(N)cc4)cc23)CC1 [cpd 90, N-[5-(4-Aminophenyl)-1H-indazol-3-yl]-1-methylpiperidine-4-carboxamide dihydrochloride]
31 | 592 nM | CN1CCC(C(=O)Nc2n[nH]c3ccc(-c4cc(C(F)(F)F)ccc4Cl)cc23)CC1 [cpd 94, N-{5-[2-Chloro-5-(trifluoromethyl)phenyl]-1H-indazol-3-yl}-1-methylpiperidine-4-carboxamide hydrochloride]
32 | 438 nM | COc1c(F)cc(F)c(-c2ccc3[nH]nc(NC(=O)C4CCN(C)CC4)c3c2)c1F [compound 131, 1-Methyl-N-[5-(2,4,6-trifluoro-3-methoxyphenyl)-1H-indazol-3-yl]piperidine-4-carboxamide hydrochloride]
33 | 141 nM | CN1CCC(C(=O)Nc2n[nH]c3ccc(-c4ccc(O)cc4Cl)cc23)CC1 [cpd 111, N-[5-(2-Chloro-4-hydroxyphenyl)-1H-indazol-3-yl]-1-methylpiperidine-4-carboxamide hydrochloride]
34 | 216 nM | CN1CCC(C(=O)Nc2n[nH]c3ccc(-c4cc(Cl)ccc4Cl)cc23)CC1 [cpd 80, N-[5-(2,5-Dichlorophenyl)-1H-indazol-3-yl]-1-methylpiperidine-4-carboxamide hydrochloride]

— US20250206724A1, “SUBSTITUTED 3-AMINO INDAZOLE DERIVATIVES AS KINASE INHIBITORS” (NERVIANO MEDICAL SCIENCES S.R.L., priority 2022, published 2025)
